Reference: patent US10385070B2, “Chroman-spirocyclic piperidine amides as modulators of ion channels” (VERTEX PHARMACEUTICALS INCORPORATED, priority 2011, dated 2019)

Biological target: human NaV subtype, like NaV 1.7 (Homo sapiens, UniProt Q15858)
Assay: E-VIPR optical membrane potential assay with electrical stimulation
Format: cell-based
Conditions: active against one or more sodium channels; assay and NaV subtype not specified for Table 3; read-out: IC50 Binned Activity Data
Text: Assays for Detecting and Measuring NaV Inhibition Properties of Compound E-VIPR Optical Membrane Potential Assay Method with Electrical Stimulation
Sodium channels are voltage-dependent proteins that can be activated by inducing membrane voltage changes by applying electric fields. The electrical stimulation instrument and methods of use are described in Ion Channel Assay Methods PCT/US01/21652, herein incorporated by reference and are referred to as E-VIPR. The instrument comprises a microtiter plate handler, an optical system for exciting the coumarin dye while simultaneously recording the coumarin and oxonol emissions, a waveform generator, a current- or voltage-controlled amplifier, and a device for inserting electrodes in well. Under integrated computer control, this instrument passes user-programmed electrical stimulus protocols to cells within the wells of the microtiter plate.
24 hours before the assay on E-VIPR, HEK cells expressing human NaV subtype, like NaV 1.7, are seeded in 384-well poly-lysine coated plates at 15,000-20,000 cells per well. Other subtypes are performed in an analogous mode in a cell line expressing the NaV of interest. HEK cells are grown in media (exact composition is specific to each cell type and NaV subtype) supplemented with 10% FBS (Fetal Bovine Serum, qualified; GibcoBRL #16140-071) and 1% Pen-Strep (Penicillin-Streptomycin; GibcoBRL #15140-122). Cells are grown in vented cap flasks, in 90% humidity and 10% CO2, to 100% confluence. They are usually split by trypsinization 1:10 or 1:20, depending on scheduling needs, and grown for 2-3 days before the next split.
100 mg/mL Pluronic F-127 (Sigma #P2443), in dry DMSO
Compound Plates: 384-well round bottom plate, e.g. Corning 384-well Polypropylene Round Bottom #3656
Cell Plates: 384-well tissue culture treated plate, e.g. Greiner #781091-1B
Bath1 buffer. Glucose 10 mM (1.8 g/L), Magnesium Chloride (Anhydrous), 1 mM (0.095 g/L), Calcium Chloride, 2 mM (0.222 g/L), HEPES 10 mM (2.38 g/L), Potassium Chloride, 4.5 mM (0.335 g/L), Sodium Chloride 160 mM (9.35 g/L).
Hexyl Dye Solution: Bath1 Buffer+0.5% β-cyclodextrin (make this prior to use, Sigma #C4767), 8 μM CC2-DMPE+2.5 μM DiSBAC6(3). To make the solution Add volume of 10% Pluronic F127 stock equal to volumes of CC2-DMPE+DiSBAC6(3). The order of preparation is first mix Pluronic and CC2-DMPE, then add DiSBAC6(3) while vortexing, then add Bath1+β-Cyclodextrin.
1) Pre-spot compounds (in neat DMSO) into compound plates. Vehicle control (neat DMSO), the positive control (20 mM DMSO stock tetracaine, 125 μM final in assay) and test compounds are added to each well at 160× desired final concentration in neat DMSO. Final compound plate volume will be 80 μL (80-fold intermediate dilution from 1 μL DMSO spot; 160-fold final dilution after transfer to cell plate). Final DMSO concentration for all wells in assay is 0.625%.
2) Prepare Hexyl Dye Solution.
3) Prepare cell plates. On the day of the assay, medium is aspirated and cells are washed three times with 100 μL of Bath1 Solution, maintaining 25 μL residual volume in each well.
4) Dispense 25 μL per well of Hexyl Dye Solution into cell plates. Incubate for 20-35 minutes at room temp or ambient conditions.
5) Dispense 80 μL per well of Bath1 into compound plates. Acid Yellow-17 (1 mM) is added and Potassium Chloride can be altered from 4.5 to 20 mM depending on the NaV subtype and assay sensitivity.
6) Wash cell plates three times with 100 μL per well of Bath1, leaving 25 μL of residual volume. Then transfer 25 uL per well from Compound Plates to Cell Plates. Incubate for 20-35 minutes at room temp/ambient condition
7) Read Plate on E-VIPR. Use the current-controlled amplifier to deliver stimulation wave pulses for typically 9 seconds and a scan rate of 400 Hz. A pre-stimulus recording is performed for 0.5 seconds to obtain the un-stimulated intensities baseline. […]

Sequence of human NaV subtype, like NaV 1.7 (Q15858 whole entry): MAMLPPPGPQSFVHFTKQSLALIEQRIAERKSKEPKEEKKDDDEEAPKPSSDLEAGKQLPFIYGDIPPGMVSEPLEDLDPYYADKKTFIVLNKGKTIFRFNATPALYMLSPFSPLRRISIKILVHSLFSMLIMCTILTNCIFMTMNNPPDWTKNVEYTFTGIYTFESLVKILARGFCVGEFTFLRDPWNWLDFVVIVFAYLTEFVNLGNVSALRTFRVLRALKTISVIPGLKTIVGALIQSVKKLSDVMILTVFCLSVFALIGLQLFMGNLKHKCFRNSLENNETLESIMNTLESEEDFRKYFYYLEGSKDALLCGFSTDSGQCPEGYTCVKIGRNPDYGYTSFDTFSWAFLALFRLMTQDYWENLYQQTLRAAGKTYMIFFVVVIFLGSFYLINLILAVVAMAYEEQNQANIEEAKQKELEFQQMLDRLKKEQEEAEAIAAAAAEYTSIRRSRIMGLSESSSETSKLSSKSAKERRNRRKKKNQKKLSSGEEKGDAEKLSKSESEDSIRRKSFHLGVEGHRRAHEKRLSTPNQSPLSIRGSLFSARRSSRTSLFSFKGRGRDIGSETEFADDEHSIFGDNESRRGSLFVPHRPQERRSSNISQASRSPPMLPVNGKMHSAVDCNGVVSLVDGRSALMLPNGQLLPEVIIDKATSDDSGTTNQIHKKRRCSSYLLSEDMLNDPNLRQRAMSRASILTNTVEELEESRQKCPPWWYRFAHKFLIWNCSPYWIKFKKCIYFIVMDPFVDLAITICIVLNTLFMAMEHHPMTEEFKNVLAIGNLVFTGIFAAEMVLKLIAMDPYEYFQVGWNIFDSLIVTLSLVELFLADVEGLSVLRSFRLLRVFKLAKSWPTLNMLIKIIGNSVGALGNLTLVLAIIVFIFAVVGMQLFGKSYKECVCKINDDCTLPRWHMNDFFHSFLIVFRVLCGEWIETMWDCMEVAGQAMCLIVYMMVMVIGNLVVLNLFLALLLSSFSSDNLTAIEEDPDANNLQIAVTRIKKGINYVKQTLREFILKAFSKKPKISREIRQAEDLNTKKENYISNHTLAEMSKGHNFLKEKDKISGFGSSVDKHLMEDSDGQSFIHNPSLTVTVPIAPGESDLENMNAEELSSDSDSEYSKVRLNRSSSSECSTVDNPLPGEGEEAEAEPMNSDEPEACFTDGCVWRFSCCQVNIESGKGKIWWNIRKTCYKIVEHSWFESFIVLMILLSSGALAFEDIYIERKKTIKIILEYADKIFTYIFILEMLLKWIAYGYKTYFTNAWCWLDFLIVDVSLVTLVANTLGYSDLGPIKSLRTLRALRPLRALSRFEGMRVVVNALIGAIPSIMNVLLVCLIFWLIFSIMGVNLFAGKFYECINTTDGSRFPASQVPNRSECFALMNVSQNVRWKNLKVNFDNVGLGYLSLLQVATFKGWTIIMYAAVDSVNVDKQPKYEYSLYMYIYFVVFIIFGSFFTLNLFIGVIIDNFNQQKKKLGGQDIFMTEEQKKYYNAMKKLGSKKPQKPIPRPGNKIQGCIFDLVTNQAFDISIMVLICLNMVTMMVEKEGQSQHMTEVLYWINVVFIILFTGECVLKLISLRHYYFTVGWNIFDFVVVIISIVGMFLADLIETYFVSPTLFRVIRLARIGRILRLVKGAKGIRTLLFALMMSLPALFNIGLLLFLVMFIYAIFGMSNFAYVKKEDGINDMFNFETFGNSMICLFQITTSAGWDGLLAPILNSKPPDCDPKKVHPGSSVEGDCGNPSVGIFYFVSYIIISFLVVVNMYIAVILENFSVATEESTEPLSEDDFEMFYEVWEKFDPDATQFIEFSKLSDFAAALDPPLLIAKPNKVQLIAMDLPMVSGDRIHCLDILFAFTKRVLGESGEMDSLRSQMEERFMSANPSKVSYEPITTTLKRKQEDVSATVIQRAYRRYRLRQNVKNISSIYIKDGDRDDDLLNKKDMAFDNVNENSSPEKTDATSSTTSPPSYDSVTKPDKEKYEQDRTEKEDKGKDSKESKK

Row | Structure (SMILES) | IC50
1 | COc1cc(C(=O)N2CCC3(CC2)CC(OC)c2ccccc2S3(=O)=O)ccc1OC(C)C (centres unmarked) [Compound 109] | > 5 µM
2 | CC(C)O[C@@H]1CC2(CCN(C(=O)c3ccc(S(=O)(=O)C(F)F)cc3)CC2)Oc2ccc(F)cc21 [Compound 110] | ≤ 2 µM
3 | CCc1ccc(C(=O)N2CCC3(CC2)C[C@@H](OC(C)C)c2cc(F)ccc2O3)nc1 [Compound 111] | > 5 µM
4 | CC(C)Oc1ccc(C(=O)N2CCC3(CC2)C[C@@H](OC(C)C)c2cc(F)ccc2O3)cc1F [Compound 112] | ≤ 2 µM
5 | COc1ccccc1C(=O)N1CCC2(CC1)CC(OC)c1ccccc1O2 (centres unmarked) [Compound 113] | ≤ 2 µM
6 | COc1cc(C(=O)N2CCC3(CC2)C[C@@H](OC(C)C)c2ccccc2O3)ccc1OC(C)C [Compound 114] | ≤ 2 µM
7 | CC(C)O[C@H]1CC2(CCN(C(=O)c3ccc(C(C)(C)O)cc3)CC2)Oc2ccccc21 [Compound 115] | 2 to 5 µM
8 | COc1cc(C(=O)N2CCC3(CC2)C[C@@H](OC(C)C)c2ccccc2O3)ccc1OCCCO [Compound 116] | 2 to 5 µM
9 | COc1cc(C(=O)N2CCC3(CC2)C[C@@H](OC(C)C)c2cc(F)ccc2O3)ccc1OCCO [Compound 117] | ≤ 2 µM
10 | CC(C)OC1CC2(CCN(C(=O)c3ccc(C(C)(C)O)c(F)c3)CC2)Oc2cc(F)ccc21 (centres unmarked) [Compound 118] | ≤ 2 µM
11 | CC(C)OC1CC2(CCN(C(=O)c3ccc(S(=O)(=O)C(C)C)cc3)CC2)Oc2ccccc21 (centres unmarked) [Compound 119] | ≤ 2 µM
12 | COc1cc(C(=O)N2CCC3(CC2)C[C@@H](OC(C)C)c2cc(F)ccc2O3)ccc1C(C)(C)CO [Compound 120] | ≤ 2 µM
13 | CCO[C@@H]1CC2(CCN(C(=O)c3ccc(S(=O)(=O)C(F)F)cc3)CC2)Oc2ccc(F)cc21 [Compound 121] | > 5 µM
14 | Cc1cc(C(=O)N2CCC3(CC2)C[C@@H](O)c2cc(F)ccc2O3)ccc1OC(C)C [Compound 122] | ≤ 2 µM
15 | CC(C)O[C@H]1CC2(CCN(C(=O)c3ccc4c(cnn4C)c3)CC2)Oc2ccccc21 [Compound 123] | 2 to 5 µM
16 | CC(C)Oc1ccc(C(=O)N2CCC3(CC2)C[C@@H](OC(C)C)c2ccccc2O3)cn1 [Compound 124] | > 5 µM
17 | CCOc1ccc(C(=O)N2CCC3(CC2)C[C@@H](OC(C)C)c2ccccc2O3)cc1F [Compound 125] | ≤ 2 µM
18 | CCc1ccc(C(=O)N2CCC3(CC2)C[C@@H](OC(C)C)c2cc(F)ccc2O3)cc1OC [Compound 126] | ≤ 2 µM
19 | COc1cc(C(=O)N2CCC3(CC2)CC(OC2CC2)c2ccccc2O3)ccc1OC(C)C (centres unmarked) [Compound 127] | ≤ 2 µM
20 | COc1cc(C(=O)N2CCC3(CC2)CC(OC(C)(C)C)c2ccccc2O3)ccc1OC(C)C (centres unmarked) [Compound 128] | ≤ 2 µM
21 | CCOc1ccc(C(=O)N2CCC3(CC2)C[C@@H](OC(C)C)c2cc(F)ccc2O3)nc1 [Compound 129] | 2 to 5 µM
22 | CC(C)O[C@@H]1CC2(CCN(C(=O)c3ccc(C(C)(C)O)c(F)c3)CC2)Oc2cc(F)ccc21 [Compound 130] | 2 to 5 µM
23 | CC(C)O[C@@H]1CC2(CCN(C(=O)c3ccccc3OC(F)(F)F)CC2)Oc2ccc(F)cc21 [Compound 131] | ≤ 2 µM
24 | CC1CCCN(c2ccc(C(=O)N3CCC4(CC3)C[C@@H](OC(C)C)c3cc(F)ccc3O4)nc2)C1 (some centres unmarked) [Compound 132] | ≤ 2 µM
25 | COc1ccc(C(=O)N2CCC3(CC2)C[C@H](OC(C)C)c2ccccc2O3)cc1C [Compound 133] | ≤ 2 µM
26 | Cc1cc(C(=O)N2CCC3(CC2)C[C@@H](O)c2cc(F)ccc2O3)ccc1C(C)(C)O [Compound 134] | ≤ 2 µM
27 | COCOC1Cc2ccccc2OC12CCN(C(=O)c1ccc(OC(C)C)c(OC)c1)CC2 (centres unmarked) [Compound 135] | ≤ 2 µM

Row | Structure (SMILES) | IC50
28 | COc1cc(C(=O)N2CCC3(CC2)C[C@@H](OC(C)C)c2ccccc2O3)ccc1O [Compound 136] | ≤ 2 µM
29 | CC(C)O[C@@H]1CC2(CCN(C(=O)c3ccc4c(cnn4C)c3)CC2)Oc2ccccc21 [Compound 137] | ≤ 2 µM
30 | Cc1cc(C(=O)N2CCC3(CC2)CC(O)c2c(F)cccc2O3)ccc1OC(C)C (centres unmarked) [Compound 138] | ≤ 2 µM
31 | CC(C)Oc1ccc(C(=O)N2CCC3(CC2)C[C@@H](OC(C)C)c2cc(F)ccc2O3)nc1 [Compound 139] | ≤ 2 µM
32 | CC(C)Oc1ccc(C(=O)N2CCC3(CC2)C[C@@H](OC(C)C)c2ccccc2O3)cc1F [Compound 140] | ≤ 2 µM
33 | Cc1cc(C(=O)N2CCC3(CC2)CC(OC(C)C)c2ccccc2O3)ccc1OC(C)C (centres unmarked) [Compound 141] | ≤ 2 µM
34 | COc1cc(C(=O)N2CCC3(CC2)CC(OC)c2ccccc2O3)ccc1OC(C)C (centres unmarked) [Compound 142] | ≤ 2 µM
35 | COc1cc(C(=O)N2CCC3(CC2)CC(Cn2cccn2)c2ccccc2O3)ccc1OC(C)C (centres unmarked) [Compound 143] | ≤ 2 µM
36 | COc1cc(O)ccc1C(=O)N1CCC2(CC1)C[C@H](OC(C)C)c1ccccc1O2 [Compound 144] | ≤ 2 µM
37 | COc1cc(C(=O)N2CCC3(CC2)CC(Oc2cccnc2)c2ccccc2O3)ccc1OC(C)C (centres unmarked) [Compound 145] | ≤ 2 µM
38 | COc1cc(C(=O)N2CCC3(CC2)C[C@@H](OC(C)C)c2cc(F)ccc2O3)ccc1OC(C)C [Compound 146] | ≤ 2 µM
39 | CC(C)CS(=O)(=O)c1ccc(C(=O)N2CCC3(CC2)C[C@@H](OC(C)C)c2cc(F)ccc2O3)cc1 [Compound 147] | ≤ 2 µM
40 | CC(C)Oc1ccc(C(=O)N2CCC3(CC2)C[C@@H](OC(C)C)c2cc(F)ccc2O3)cc1CO [Compound 148] | ≤ 2 µM
41 | Cc1cc(C(=O)N2CCC3(CC2)C[C@H](OC(C)C)c2ccccc2O3)ccc1O [Compound 149] | ≤ 2 µM
42 | COc1cc(C(=O)N2CCC3(CC2)CC(OC(C)C)c2ccccc2O3)ccc1OC(C)C (centres unmarked) [Compound 150] | ≤ 2 µM
43 | COc1cc(C(=O)N2CCC3(CC2)Oc2ccccc2C(OC(C)C)C3(C)C)ccc1OC(C)C (centres unmarked) [Compound 151] | ≤ 2 µM
44 | COc1cc(C(=O)N2CCC3(CC2)CC(Oc2ccccc2C#N)c2ccccc2O3)ccc1OC(C)C (centres unmarked) [Compound 152] | ≤ 2 µM
45 | CC(C)O[C@@H]1CC2(CCN(C(=O)c3ccc(S(=O)(=O)C(C)C)cc3)CC2)Oc2c(F)cc(F)cc21 [Compound 153] | 2 to 5 µM
46 | CC(C)O[C@H]1CC2(CCN(C(=O)c3ccc(C(C)(C)O)c(F)c3)CC2)Oc2cc(F)ccc21 [Compound 154] | ≤ 2 µM
47 | COc1cc(C(=O)N2CCC3(CC2)C[C@@H](OC(C)C)c2cc(F)ccc2O3)ccc1O[C@@H]1CCOC1 [Compound 155] | ≤ 2 µM
48 | Cc1cc(C(=O)N2CCC3(CC2)C[C@@H](OC(C)C)c2cc(F)ccc2O3)ccc1S(C)(=O)=O [Compound 156] | ≤ 2 µM
49 | CC(C)OC1CC2(CCN(C(=O)c3ccccc3OC(F)(F)F)CC2)Oc2ccccc21 (centres unmarked) [Compound 157] | ≤ 2 µM
50 | COc1cc(C(=O)N2CCC3(CC2)CC(OCC2CC2)c2ccccc2O3)ccc1OC(C)C (centres unmarked) [Compound 158] | ≤ 2 µM
51 | Cc1cc(C(F)F)n2ncc(C(=O)N3CCC4(CC3)C[C@H](OC(C)C)c3ccccc3O4)c2n1 [Compound 159] | ≤ 2 µM
52 | COc1cc(C(=O)N2CCC3(CC2)C[C@@H](OC(C)C)c2ccccc2O3)ccc1C(C)(C)CO [Compound 160] | ≤ 2 µM
53 | CC(C)O[C@@H]1CC2(CCN(C(=O)c3ccc([S+]([O-])C(C)C)cc3)CC2)Oc2ccc(F)cc21 (some centres unmarked) [Compound 161] | ≤ 2 µM
